# Data published in US8512707B2, “Methods of treating drug-resistant cancers” (Seattle Genetics, Inc., priority 2006, dated 2013).
# Read-outs that look alike come from different tables or passages of the source. Square brackets hold non-standard residues; d marks the D form. Peptide text beside a SMILES is read from it. * marks the point of attachment. Dolaproine = CO[C@@H]([C@@H]1CCCN1)[C@@H](C)C(=O)O; Dil = CC[C@H](C)[C@H](NC)[C@@H](CC(=O)O)OC; X1 = C[C@@H](N*)[C@@H](O)c1ccccc1; NMeV = CN[C@H](C(=O)O)C(C)C
# Legend:
# NCI-H69 and NCI-H69/LX-4 = test: Drug sensitivity of parental and drug resistant subline pair (resazurin); type: cell-based, human; conditions: IC50 of resistant line divided by IC50 of parental line, 96 hr
# Protocol: (§1) The following parental and drug resistant cell lines were used to determine their MMAF-drug sensitivity.
# (§2) The activity of various drugs against parental and drug resistant subline pairs was tested. The pairs of cell lines tested were A2780 and A2780adr; MES-SA and MES-SA/Dx5; NCI-H69 and NCI-H69/LX-4; and HL60 and HL60/RV. Cell lines were plated and incubated 24 hr. Culture medium containing serial dilutions of the drugs doxorubicin, vincristine, cisplatin, dolastatin 10 or MMAF were then added. The cultures were incubated to 96 hr and labeled with resazurin. Sensitivity to each drug was measured by determining the IC50 of the parent and drug resistant subline pair. The drug resistance (as “fold resistance”) was determined from the IC50 value of the resistant cell line divided by the IC50 value of the parental line. Mean fold resistance is the average across the cell line panel.
# A2780 and A2780adr = test: as above; type: cell-based, human; conditions: IC50 of resistant line divided by IC50 of parental line, 96 hr
# Protocol: as §1, §2
# NCI/ADR-RES cells = test: Cell killing by free drugs or MMAF-ADCs with or without verapamil; type: cell-based; conditions: for Fold Difference: IC50 drug alone divided by IC50 drug plus verapamil; for IC50: Homo sapiens
# Protocol: NCI/ADR-RES cells were plated and allowed to adhere. Neat culture medium or medium containing 40 μM verapamil was added, and the cultures were incubated for 4 hr. Serial dilutions of the free drugs (doxorubicin, cisplatin or MMAF) or MMAF ADCs (cBR96-vcMMAF or mOKT9-vcMMAF) were then added. The cultures were incubated to 96 hr and labeled with resazurin. Referring to Table 7, the values are the IC50 in […] (doxorubicin, cisplatin, MMAF) or […] (cBR96-vcMMAF, mOKT9-vcMMAF) determined from 4-parameter curve fits. The fold difference is determined by dividing the IC50 from the drug alone treatment by that of the drug treated plus verapamil cultures.
# [1] = system: parental and drug resistant cell line pairs; test: Drug sensitivity across the panel of parental/drug resistant cell line pairs; type: cell-based; conditions: for Mean Fold Resistance: average across the cell line panel; for difference in sensitivity of parent and resistant line: statement over all cell line pairs of Table 3
# Protocol: as §1, §2
# MES-SA and MES-SA/Dx5 = test: Drug sensitivity of parental and drug resistant subline pair (resazurin); type: cell-based; conditions: IC50 of resistant line divided by IC50 of parental line, 96 hr
# Protocol: as §1, §2
# HL60 and HL60/RV = test: as above; type: cell-based; conditions: IC50 of resistant line divided by IC50 of parental line, 96 hr
# Protocol: as §1, §2
# [2] = system: HCT-15 (colon carcinoma) cells; test: Alteration of drug potency by verapamil, free drugs; type: cell-based; conditions: for Fold Difference: IC50 drug alone divided by IC50 verapamil plus drug, HCT-15; for IC50: HCT-15, drug alone, 96 hr, resazurin
# Protocol: Verapamil is a known inhibitor of the P-gp transporter. The following study was conducted to measure the effect of verapamil on P-gp-mediated transport of doxorubicin, vincristine, cisplatin and MMAF.
# HCT-15 (colon carcinoma) cells were plated and allowed to adhere to the plates. Neat culture medium or medium containing 40 μM verapamil was added, and the cultures were incubated for 4 hr. Serial dilutions of doxorubicin, vincristine, cisplatin or MMAF were then added. The cultures were incubated to 96 hr and labeled with resazurin. Referring to Table 4, the values shown are the IC50 determined from 4-parameter curve fits. The fold difference was determined by dividing the IC50 of the drug alone treatment by that of the verapamil plus drug treated cultures.
# [3] = system: HCT-15 (colon carcinoma) cells; test: as above; type: cell-based; conditions: read-out: IC50 +10 μM Verapamil, HCT-15, verapamil 4 hr before drug, 96 hr, resazurin
# H69 and H69/LX4 = test: Cytotoxic effects on H69 and its P-glycoprotein overexpressing counterpart; type: cell-based, human; conditions: free drugs, 6 days, Alamar Blue (FIG. 2A, 2B)
# Protocol: (§3) Log phase cultures of cells were collected and cells plated at seeding densities ranging from 500-10,000 cells/well according to pre-determined conditions. After incubating 24 h to allow surface protein reconstitution, serial dilutions of test molecules were added and cultures incubated a further 4-6 days depending on cell line. Assessment of cellular growth and data reduction to generate IC50 values was done using Alamar Blue (Biosource International, Camarillo, Calif.) dye reduction assay as previously described, according to previously published methods (Doronina et al., supra; Hamblett et al., supra; Law et al., 2004, Clin. Cancer Res. 10:7842-51; Francisco et al., supra). Briefly, a 40% solution (wt/vol) of Alamar Blue was freshly prepared in complete media just before cultures were added. Ninety-two hours after drug exposure, Alamar Blue solution was added to cells to constitute 10% culture volume. Cells were incubated for 4 h, and dye reduction was measured on a Fusion HT fluorescent plate reader (Packard Instruments, Meriden, Conn.).
# [4] = system: H3396 breast carcinoma cells; test: In vitro growth inhibition (Alamar Blue); type: cell-based; conditions: Table 8, free auristatins, 96 h
# Protocol: as §3
# [5] = system: 786-O renal cell carcinoma; test: In vitro growth inhibition (Alamar Blue); type: cell-based; conditions: Table 8, free auristatins, 96 h
# Protocol: as §3
# [6] = system: Caki-1 renal cell carcinoma; test: In vitro growth inhibition (Alamar Blue); type: cell-based; conditions: Table 8, free auristatins, 96 h
# Protocol: as §3
# [7] = Maximum tolerated dose of free drugs in mice; type: in vivo; conditions: free drug
# Excerpt: The synthesis of MMAE proceeded through a solution-phase route involving the coupling of the amino-protected N-terminal trimer to the C-terminal dimer. Due to the convergent nature of the process, it was possible to produce a large number of auristatins with varied solubilities, potencies and pharmacokinetic properties. […] MMAF-OMe is a prodrug of MMAF (FIG. 1), with the potential of having facilitated intracellular uptake due to the presence of a neutral C-terminus. In addition, intracellular ester hydrolysis of MMAF-OMe should rapidly generate MMAF, a C-terminally charged molecule expected to have impaired membrane translocation capabilities. […] In addition, the maximum tolerated dose in mice of MMAF (>16 mg/kg) was much higher than MMAE (1 mg/kg). Thus, MMAF was of great interest for targeted delivery, since the free drug had attenuated potency, lower toxicity, and much higher aqueous solubility compared to MMAE. Facilitated intracellular transport was expected to greatly enhance its activity.
# hematologic cell lines = conditions: previously displayed (Doronina et al.; Law et al.); cited from earlier work
# Karpas 299 cells = test: In vitro growth inhibition (Alamar Blue); type: cell-based, human; conditions: 96 h
# Protocol: as §3
# DEL = test: In vitro growth inhibition (Alamar Blue); type: cell-based, human; conditions: 96 h, ADC concentrations represented by the drug component
# Protocol: as §3
# (§4) Cells were exposed to the ADCs continuously for 96 h, and the cytotoxic effects, as determined by Alamar Blue conversion, were compared to those of free MMAF.
# L428 = test: In vitro growth inhibition (Alamar Blue); type: cell-based, human; conditions: 96 h, ADC concentrations represented by the drug component
# Protocol: as §3, §4
# SR-786 = test: In vitro growth inhibition (Alamar Blue); type: cell-based, human; conditions: 96 h, ADC concentrations represented by the drug component
# Protocol: as §3, §4
# KMH-2 = test: In vitro growth inhibition (Alamar Blue); type: cell-based, human; conditions: 96 h, ADC concentrations represented by the drug component
# Protocol: as §3, §4
# HDLM-2 = test: In vitro growth inhibition (Alamar Blue); type: cell-based, human; conditions: 96 h, ADC concentrations represented by the drug component
# Protocol: as §3, §4
# SUP-M2 = test: In vitro growth inhibition (Alamar Blue); type: cell-based, human; conditions: 96 h, ADC concentrations represented by the drug component
# Protocol: as §3, §4
# SU-DHL-1 = test: In vitro growth inhibition (Alamar Blue); type: cell-based, human; conditions: 96 h, ADC concentrations represented by the drug component
# Protocol: as §3, §4
# WSU-NHL = test: In vitro growth inhibition (Alamar Blue), CD30 negative line; type: cell-based, human; conditions: 96 h, ADC concentrations represented by the drug component
# Protocol: as §3, §4
# L540cy = test: In vitro growth inhibition (Alamar Blue); type: cell-based; conditions: 96 h, ADC concentrations represented by the drug component
# Protocol: as §3, §4
# HH = test: In vitro growth inhibition (Alamar Blue); type: cell-based; conditions: 96 h, ADC concentrations represented by the drug component
# Protocol: as §3, §4
# RPMI 6666 = test: In vitro growth inhibition (Alamar Blue); type: cell-based; conditions: 96 h, ADC concentrations represented by the drug component
# Protocol: as §3, §4
# [8] = system: panel of CD30 positive and negative hematologic cell lines; test: In vitro growth inhibition, panel of hematologic cell lines; type: cell-based; conditions: mean over the lines of Table 9; ADC concentrations represented by the drug component; read-out: IC50 Mean (all lines)
# Protocol: as §3, §4
# Aqueous solubility = type: physicochemical
Structure (SMILES),Fold Resistance NCI-H69/LX4 / NCI-H69 (NCI-H69 and NCI-H69/LX-4) [fold],Fold Resistance A2780adr / A2780 (A2780 and A2780adr) [fold],Fold Difference (NCI/ADR-RES cells) [fold],Mean Fold Resistance [1] [fold],Fold Resistance MES-SA/Dx5 / MES-SA (MES-SA and MES-SA/Dx5) [fold],Fold Resistance HL60/RV / HL60 (HL60 and HL60/RV) [fold],Fold Difference [2],IC50 [4] [nM],IC50 [5] [nM],IC50 [6] [nM],"IC50 (Karpas 299 cells; Table 8, free auristatins) [nM]",further results
N.N.[Cl][Pt][Cl] [Cisplatin],4.7,2.7,0.88,5.5,1.6,13,1.04 fold,–,–,–,–,difference in sensitivity of parent and resistant line [1]: thirteen
CC[C@H](C)[C@@H]([C@@H](CC(=O)N1CCC[C@H]1[C@H](OC)[C@@H](C)C(=O)N[C@@H](Cc1ccccc1)c1nccs1)OC)N(C)C(=O)[C@@H](NC(=O)[C@H](C(C)C)N(C)C)C(C)C [Dolastatin 10],–,500,–,>500,8275,–,–,–,–,–,–,–
COc1cccc2c1C(=O)c1c(O)c3c(c(O)c1C2=O)C[C@@](O)(C(=O)CO)C[C@@H]3O[C@H]1C[C@H](N)[C@H](O)[C@H](C)O1 [Doxorubicin],103,137,17.9,88,83,24,5.4 fold,–,–,–,–,"IC50 (NCI/ADR-RES cells; 96 h, read-out: IC50 Drug or ADC Only): 10000 nM; IC50 (NCI/ADR-RES cells; read-out: IC50 (Drug or ADC) + 10 μM Verapamil): 560 nM; IC50 ([3]; Homo sapiens): 62 nM; IC50 ([2]; Homo sapiens): 335 nM; fold less sensitive H69/LX-4 compared to the parental cell (H69 and H69/LX4): approximately 100 fold"
"CC[C@H](C)[C@@H]([C@@H](CC(=O)N1CCC[C@H]1[C@H](OC)[C@@H](C)C(=O)N[C@H](C)[C@@H](O)c1ccccc1)OC)N(C)C(=O)[C@@H](NC(=O)[C@@H](NC)C(C)C)C(C)C [MMAE, reference compound] (H-[NMeV]V[Dil][Dolaproine]-X1)",–,–,–,–,–,–,–,0.1,2,0.7,0.5,maximum tolerated dose in mice [7]: 1 mg/kg; IC50 (hematologic cell lines): 1 to 5 nM
"CC[C@H](C)[C@@H]([C@@H](CC(=O)N1CCC[C@H]1[C@H](OC)[C@@H](C)C(=O)N[C@@H](Cc1ccccc1)C(=O)O)OC)N(C)C(=O)[C@@H](NC(=O)[C@@H](NC)C(C)C)C(C)C [MMAF, N-methylvaline-valine-dolaisoleuine-dolaproline-phenylalanine] (H-[NMeV]V[Dil][Dolaproine]F-OH)",4,7.5,6.4,5,3,6,5.7 fold,105,257,200,119,maximum tolerated dose in mice [7]: > 16 mg/kg; IC50 [3]: 174 nM; difference in sensitivity of parent and resistant line [1]: thirteen; IC50 (DEL): 69 nM; IC50 (L428): 68 nM; IC50 (SR-786): 38.1 nM; IC50 (KMH-2): 45.4 nM; IC50 (HDLM-2): 66 nM; IC50 (SUP-M2): 79.7 nM; IC50 (SU-DHL-1): 34.7 nM; IC50 (WSU-NHL): 60.3 nM; IC50 [2]: 1000 nM; fold less sensitive H69/LX-4 compared to the parental cell (H69 and H69/LX4): 3 fold; IC50 (L540cy): 70.4 nM; IC50 (HH): 30.7 nM; IC50 (RPMI 6666): 164 nM; IC50 [8]: 70.4 nM; IC50 (Karpas 299 cells; ADC concentrations represented by the drug component): 119 nM; aqueous solubility compared to MMAE (Aqueous solubility): much higher
CC[C@H](C)[C@@H]([C@@H](CC(=O)N1CCC[C@H]1[C@H](OC)[C@@H](C)C(=O)N[C@@H](Cc1ccccc1)C(=O)OC)OC)N(C)C(=O)[C@@H](NC(=O)[C@@H](NC)C(C)C)C(C)C [MMAF-OMe] (H-[NMeV]V[Dil][Dolaproine]F-OMe),–,–,–,–,–,–,–,< 0.001,0.01,< 0.001,< 0.001,–
CC[C@]1(O)C[C@H]2CN(CCc3c([nH]c4ccccc34)[C@@](C(=O)OC)(c3cc4c(cc3OC)N(C=O)[C@H]3[C@@](O)(C(=O)OC)[C@H](OC(C)=O)[C@]5(CC)C=CCN6CC[C@]43[C@@H]65)C2)C1 [Vincristine],56888,2000,–,>260,284,258,">10,000 fold",–,–,–,–,IC50 ([3]; Homo sapiens): < 0.001 nM; IC50 ([2]; Homo sapiens): 70 nM
